{
  "source": "paper PMC11087982",
  "about": "“In vitro and in vivo activities of a trithiolato-diRuthenium complex conjugated with sulfadoxine against the apicomplexan parasite Toxoplasma gondii” (International Journal for Parasitology: Drugs and Drug …, 2024)",
  "key": {"T. gondii-infected HFF": {"system": "T. gondii-infected HFF", "test": "TMRE uptake assay (mitochondrial membrane potential), T. gondii-infected HFF", "type": "cell-based, Toxoplasma gondii Me49 in human HFF", "details": "0.5 μM, 3.5 h", "experimental": "5 × 10^5 HFF were seeded into T25 culture flasks in DMEM complete medium and maintained in culture for 72 h to reach ⁓80% confluency. HFF monolayers were left either non-infected or were infected with 2 × 10^5 T. gondii Me49 tachyzoites. After another 48 h, the medium was removed from infected and non-infected T25 flasks and was replaced either by medium containing 0.5 μM RU-SDX, or in the case of non-treated controls, medium containing 0.05% DMSO. As positive controls, the two mitochondrial uncouplers FCCP and CCCP were applied at a concentration of 80 and 50 μM, respectively. PYR was applied at 0.5 μM as a control drug not affecting the MMP, and RU-adenine, used as a conjugate shown earlier to impact on the mitochondrial ultrastructure in T. gondii ([Anghel et al., 2021]; [Desiatkina et al., 2022b]), was also tested at 0.5 μM ([Anghel et al., 2021]; [Desiatkina et al., 2022b]). […] Fluorescence was measured using a Hidex Sense microplate reader instrument ([…]) with the excitation wavelength 544/20 nm and emitted light collected at 590/20 nm. Value from wells belonging to the same experimental condition were summed and the mean TMRE uptake in each condition was calculated from three biological replicates."}, "[1]": {"system": "T. gondii Me49 tachyzoites", "test": "Long-term treatment of infected HFF to test static or cidal effect", "type": "cell-based, Toxoplasma gondii", "details": "0.5 μM", "experimental": "On day 0, the HFF monolayers were infected with 5 × 10^5 T. gondii Me49 tachyzoites. At 4 h post infection (p.i.) the medium was removed, flasks were washed twice with sterile PBS and fresh medium containing either RU-SDX at 0.25 μM or 0.5 μM, or DMSO (0.05%) as a negative control, were added. Treatments were applied during 3 and 6 days and cultures were maintained in normal DMEM complete media and examined light microscopically daily. After drug removal, flasks were also monitored microscopically daily for one week."}, "[2]": {"system": "T. gondii β-gal tachyzoites", "test": "T. gondii β-Gal tachyzoite proliferation in HFF monolayers (β-galactosidase fluorometric assay)", "type": "cell-based, Toxoplasma gondii", "experimental": "Effects of drugs on the proliferative capacity of T. gondii tachyzoites were investigated using a transgenic T. gondii RH strain constitutively expressing β-Galactosidase (T. gondii β-Gal ([Dc et al., 1997]);). Assays were carried out in 96 well plates in the presence or absence of the different compounds. For the quantification of β-Galactosidase activity, a fluorometric assay was applied as previously described ([Desiatkina et al., 2021]; [Păunescu et al., 2021])."}, "T. gondii ShSp1 oocysts": {"system": "T. gondii ShSp1 oocysts", "test": "In vivo efficacy in CD1 mice orally infected with T. gondii ShSp1 oocysts (qPCR parasite load)", "excerpt": "Female CD1 mice, 6 weeks of age, were purchased from Charles River (Sulzberg, Germany). They were housed in temperature-controlled animal facilities and were randomly distributed into 4 groups (8 mice/group, with 4 mice per cage), and food and water ad libitum. At the age of 8 weeks, mice were experimentally infected by peroral application of 120 TgShSp1 (type II) oocysts ([Imhof et al., 2021]). Placebo and RU-SDX treatments were started at 3 days p. i., with mice being treated orally by gavage. Group 1 (placebo control) received 100 μl corn oil supplemented with 10% DMSO, while group 2 (treatment group) was administered 5 mg/kg RU-SDX solubilized in 100 μl corn oil/10 % DMSO. These treatments were repeated on days 5, 7, 9 and 11 p. i. During the entire experiment mice were monitored for potential health issues at least twice per day. All mice were sacrificed at 30 days p. i. Brain, eyes, heart, and liver were collected and stored at −20 °C for subsequent DNA extraction and quantification of T. gondii load by quantitative PCR (qPCR).\nGenomic DNA was extracted from the collected samples using the NucleoSpin DNA RapidLyze Kit (Macherey-Nagel, Oensingen, Switzerland) and DNA concentrations were quantified by the QuantiFluor double-stranded DNA (dsDNA) system (Promega, Madison, WI, USA) as previously described ([Imhof et al., 2021]). DNA concentrations were adjusted to 5 ng/μl, and qPCR reactions were performed in a final volume of 10 μl containing 1x SensiFast master mix (Bioline, Meridian Bioscience), 0.5 μM of reverse and forward primers, 0.1 μM of 529rpeQ-P probe, 0.3 mM dUTP, and one unit of heat-labile Uracil DNA Glycosylase (UDG) ([Hänggeli et al., 2022]). Amplification was performed in the Bio-Rad CFX 96 QPCR instRUment (Biorad) using the following thermal profile: (1) initial incubation of 10 min at 42 °C, followed by (2) denaturation step of 5 min at 95 °C and (3) 50 cycles of two-step amplification (10 s at 95 °C and 20 s at 62 °C). For quantification, a standard curve was made based on a 10-fold serial dilution of DNA from T. gondii, equivalent to tachyzoite numbers ranging from 1 × 10^4 to 1 per 4 μl. The parasite load was expressed as number of tachyzoites per 20 ng of DNA. Statistical analyses were performed using GraphPad Prism version 5.0 (GraphPad Software, La Jolla, CA, USA). Comparisons of the parasite burdens between groups were conducted with the non-parametric Kruskal-Wallis test, followed by the Mann-Whitney-U test."}, "[3]": {"test": "Formulation of the compound for oral gavage (precipitation)", "type": "physicochemical", "details": "compared with 5 mg/kg in corn oil containing 10% DMSO; data not shown", "experimental": "A preliminary in vivo study was conducted in outbred CD1 mice that were experimentally infected with TgShSp1 oocysts."}},
  "note": "Entries after “also recorded” stand apart in the source; their conditions may differ.",
  "data": [
    {"smiles": "CC(C)(C)c1ccc(C[S-])cc1.CC(C)(C)c1ccc(C[S-])cc1.COc1ncnc(NS(=O)(=O)c2ccc(NC(=O)Cc3ccc([S-])cc3)cc2)c1OC.Cc1ccc(C(C)C)cc1.Cc1ccc(C(C)C)cc1.[Cl-].[Ru+2].[Ru+2]", "note": "[RU-SDX]", "values": [
      {"measurement": "TMRE fluorescence intensity / TMRE uptake (percentage of non-treated control = 100%)", "setting": "T. gondii-infected HFF", "result": 130, "unit": "%"},
      {"measurement": "parasiticidal or parasitostatic action in vitro", "setting": "[1]; 3 and 6 days treatment", "result": "parasitostatic but not parasiticidal; also recorded: did not act parasiticidal"},
      {"measurement": "tachyzoite re-emergence after removal of the drug", "setting": "[1]; 6 days of continuous treatment, then culture without compound", "result": "≤ 4", "unit": "days"},
      {"measurement": "T. gondii proliferation in relation to the non-treated control", "setting": "[2]; 0.1 μM", "result": 77, "unit": "%"},
      {"measurement": "T. gondii proliferation in relation to the non-treated control", "setting": "[2]; 1 μM", "result": 2, "unit": "%"},
      {"measurement": "proliferation (% of control ± SD)", "setting": "[2]; 2.5 μM", "result": "^∗∗∗0 ± 0%"},
      {"measurement": "proliferation (% of control ± SD)", "setting": "[2]; 5 μM", "result": "^∗∗∗0 ± 0%"},
      {"measurement": "IC50", "setting": "[2]; drug treatment applied concomitantly to infection of HFF monolayers", "result": 112, "unit": "nM"},
      {"measurement": "IC50", "setting": "[2]; drug treatment initiated 3 h post infection, 95% CI in brackets", "result": 145, "unit": "nM"},
      {"measurement": "IC50", "setting": "[2]; drug treatment initiated concomitantly to infection, 95% CI in brackets", "result": 112, "unit": "nM"},
      {"measurement": "IC50", "setting": "[2]; drug treatment on already infected HFF", "result": 145, "unit": "nM"},
      {"measurement": "IC50", "setting": "[2]; tachyzoites grown in HFF monolayers, drug added concomitantly to or after infection", "result": "< 150", "unit": "nM"},
      {"measurement": "cerebral parasite load compared to placebo control group", "setting": "T. gondii ShSp1 oocysts; 5 mg/kg oral gavage, 5 treatments from day 3 p.i., brain at 30 days p.i., P = 0.37", "result": "did not result in any reduction"},
      {"measurement": "parasite load in eyes compared to placebo control group", "setting": "T. gondii ShSp1 oocysts; 5 mg/kg oral gavage, 5 treatments from day 3 p.i., eyes at 30 days p.i.", "result": "significantly reduced"},
      {"measurement": "parasite load in the heart compared to placebo control group", "setting": "T. gondii ShSp1 oocysts; 5 mg/kg oral gavage, 5 treatments from day 3 p.i., heart at 30 days p.i.", "result": "significantly reduced"},
      {"measurement": "toxicity by clinical signs in treated mice", "setting": "T. gondii ShSp1 oocysts; 5 mg/kg oral in corn oil/10% DMSO, 5 treatments", "result": "not toxic"},
      {"measurement": "behaviour at higher concentrations or in other vehicles (PBS ± DMSO, H2O ± DMSO, H2O + propane-1,2-diol)", "setting": "[3]", "result": "precipitation"}
    ]}
  ]
}
